Assay results reported in publication PMC6531345 (Bioorganic & medicinal chemistry letters, 2019).

Key:
E. coli GroEL/ES = conditions: high-throughput screen; cited from earlier work
ESKAPE pathogens = conditions: panel of Gram-positive and Gram-negative bacteria; cited from earlier work
M. tuberculosis PtpB [1] = biological target: T1, M. tuberculosis PtpB (Mycobacterium tuberculosis, UniProt I6WXK4); conditions: cited from earlier work
human HSP60/10 = conditions: in vitro; cited from earlier work
native MDH = conditions: counter-screen; cited from earlier work
native Rho = conditions: counter-screen; cited from earlier work
M. tuberculosis PtpB [2] = biological target: T1, M. tuberculosis PtpB; type: biochemical; conditions: pNPP substrate, 6–8 replicates

T1 sequence (I6WXK4 whole entry, looked up): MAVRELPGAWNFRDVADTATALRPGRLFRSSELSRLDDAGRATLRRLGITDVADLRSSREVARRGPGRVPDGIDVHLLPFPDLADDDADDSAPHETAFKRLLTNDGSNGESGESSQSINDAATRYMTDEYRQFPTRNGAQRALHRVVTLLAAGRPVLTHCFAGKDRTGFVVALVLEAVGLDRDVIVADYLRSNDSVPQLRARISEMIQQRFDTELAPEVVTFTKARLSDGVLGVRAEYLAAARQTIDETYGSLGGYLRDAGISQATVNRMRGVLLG

Cc1ccc(S(=O)(=O)Nc2ccc(-c3nc4ccc(NS(=O)(=O)c5ccc(C)cc5)cc4[nH]3)cc2)cc1 [compound 1]
GroEL/ES inhibition (E. coli GroEL/ES): one of our most potent GroEL/ES inhibitors
antibacterial efficacy (ESKAPE pathogens): lacked any appreciable antibacterial efficacy

O=C(O)C(=O)N(Cc1cccc(Cl)c1)Cc1ccc(S(=O)(=O)NCCC(c2ccccc2)c2ccccc2)s1 [OMTS, (oxalylamino-methylene)-thiophene sulfonamide]
inhibition of M. tuberculosis PtpB (M. tuberculosis PtpB [1]): potent and selective inhibitor

Cc1ccc(C(=O)Nc2ccc(S(=O)(=O)O)c3cc(S(=O)(=O)O)cc(S(=O)(=O)O)c23)cc1NC(=O)c1cccc(NC(=O)Nc2cccc(C(=O)Nc3cc(C(=O)Nc4ccc(S(=O)(=O)O)c5cc(S(=O)(=O)O)cc(S(=O)(=O)O)c45)ccc3C)c2)c1 [suramin]
inhibition of human HSP60/10 (human HSP60/10): can inhibit human HSP60/10 in vitro

O=[N+]([O-])c1cc(S(=O)(=O)Nc2ccc(-c3nc4cc(NS(=O)(=O)c5ccc(Cl)s5)ccc4o3)cc2)ccc1Cl [28R]
inhibition of native MDH (native MDH): only weakly
inhibition of native Rho (native Rho): only weakly

O=S(=O)(Nc1ccc2oc(-c3ccccc3)nc2c1)c1cccc(O)c1 [L51-m]
dose-response behaviour on PtpB phosphatase activity (M. tuberculosis PtpB [2]): bi-phasic response where compounds activate then inhibit phosphatase activity
